Earlier results in patent US20140106010A1, “Blend of Green and Black Extracts for the Promotion of Health Benefits” (Kemin Industries, Inc., priority 2012, published 2014).

Key:
ERK1 and ERK2 = conditions: TRAMP mice, 0.06% EGCG in drinking water, dorsolateral and ventral prostate
[1] = tested on: prostate tissue of C57BL/6 mice; conditions: 2 weeks decaffeinated black tea extract at 50 mg/g diet

Molecule | decreased phosphorylation of ERK1 and ERK2 (ERK1 and ERK2) | greater relative absorption into the prostate compared to EGCG [1]
epigallocatechin-3-gallate [EGCG] | about 50% | 
O=c1c(O)cc([C@H]2Oc3cc(O)cc(O)c3C[C@H]2O)cc2c([C@H]3Oc4cc(O)cc(O)c4C[C@H]3O)cc(O)c(O)c12 [theaflavin] |  | 70%
